The record followed here is ChEMBL document CHEMBL5665440, “ASAP - In vitro liver microsomal stability” (2024).

Structures are written as SMILES.

A short description of the data set: Human liver microsomal stability of compound in microsomal protein, PBS buffer pH 7.4, NADPH, glucose-6-phosphate and glucose-6-phosphate dehydrogenase media. Aliquotes were taken at 5 time points and after stopping the reaction, supernatants were analyzed using HPLC coupled with a tandem mass spectrometer. The elimination constant, half-life, and intrinsic clearance are determined as results using linear regression analysis. The class given is ADME, microsomes, Microsome. The note with it: for half-life / microsomal CLint: liver microsomes; for Remaining / Remaining (without cofactor): microsomes. (Microsomes from liver hold many membrane-bound enzymes, among them those of drug oxidation.)
Wherever Remaining (without cofactor) is given: time not given here.
Wherever Remaining is given: time not given here.

Turning to `O=C(Nc1cc(Cl)cc(C(=O)Nc2ccc3c(c2)CNC3)c1)OCc1ccccc1`, the half-life (in general, how long it takes for the measured level to halve) amounted to 2.19 h; the intrinsic metabolic clearance (microsomal CLint) (as a rule, a measure of how fast metabolising enzymes remove a compound, apart from limits set by blood flow) amounted to 12.7 µL/min/mg; the Remaining is recorded as 81.215%; the “Remaining (without cofactor)” value worked out at 98.946%.
The matching figures for `NCc1cccc([C@@H]2C[C@H]2c2cc(Cl)cc(NC(=O)OCc3ccccc3)c2)c1`: 2.44 h, 11.4 µL/min/mg, 87.168% and 92.769%.
On the same counts, the results for `O=C(Nc1cc(Cl)cc(C(=O)Nc2cccc(C3CCNCC3)c2)c1)OCc1ccccc1` are above 2.89 h, below 10 µL/min/mg, 91.016% and 98.201%.
On to `NCc1cccc(NC(=O)[C@@H](NC(=O)OCc2ccccc2)C2CCCCC2)c1`, for which the half-life amounted to 5.26 h, the microsomal CLint came out at 5.29 µL/min/mg, the Remaining amounted to 90.368% and the “Remaining (without cofactor)” value is recorded as 108.836%.
Turning to `N#C[C@H](Nc1cccc(-c2nn[nH]n2)c1)c1cc(Cl)cc(NC(=O)OCc2ccccc2)c1`, the half-life came to 2.04 h, the intrinsic metabolic clearance (microsomal CLint) amounted to 13.6 µL/min/mg, the Remaining stood at 82.243% and the “Remaining (without cofactor)” value is on record as 110.789%.
With `O=C(N[C@H]1[C@H]2CCCCC[C@H]2[C@H]1C(=O)Nc1cccc(C2CCNCC2)c1)OCc1ccccc1`, the half-life stood at 0.89 h, the intrinsic clearance (microsomal CLint) is 31.3 µL/min/mg, the Remaining was 58.639% and the “Remaining (without cofactor)” value was 103.638%.
For the compound `NCc1cccc(NC(=O)C[C@@H](NC(=O)OCc2ccccc2)c2ccc(OCc3ccccc3)cc2)c1`, the half-life worked out at 1.64 h, the intrinsic metabolic clearance (microsomal CLint) was 17 µL/min/mg, the Remaining is reported as 76.547% and the “Remaining (without cofactor)” value turned out to be 105.768%.
On the same counts, the results for `O=C(O)COc1cccc(NC(=O)c2cc(Cl)cc(NC(=O)OCc3ccccc3)c2)c1` are above 2.89 h, below 10 µL/min/mg, 98.934% and 109.497%.
`NCc1cccc(NC(=O)c2cc(Cl)cc(CN)c2)c1`: the half-life came out at 1.33 h, the intrinsic clearance (microsomal CLint) came to 21 µL/min/mg, the Remaining was 124.297% and the “Remaining (without cofactor)” value worked out at 104.813%.
Consider `O=C(O)c1cc(Cl)ccc1NS(=O)(=O)c1ccc(-c2ccccc2Cl)cc1`, for which the half-life amounted to 0.0813 h, the intrinsic clearance (microsomal CLint) came out at 343 µL/min/mg, the Remaining is reported as 0.295% and the “Remaining (without cofactor)” value stood at 109.106%.
As to `NCc1cccc(NC(=O)c2cccn3cc(CN4CCCC4)nc23)c1`, the half-life is above 2.89 h, the microsomal CLint was below 10 µL/min/mg, the Remaining was determined as 98.243% and the “Remaining (without cofactor)” value is given as 100.684%.
On the same counts, the results for `CNC(=O)[C@H](Nc1cccc(-c2nn[nH]n2)c1)c1cc(Cl)cc2[nH]ncc12` are above 2.89 h, below 10 µL/min/mg, 97.01% and 105.868%.
Regarding `NCc1cccc(NC(=O)[C@@H](NC(=O)OCc2ccccc2)C(C2CCC2)C2CCC2)c1`, the half-life was found to be 2.21 h, the microsomal CLint was determined as 12.6 µL/min/mg, the Remaining amounted to 77.895% and the “Remaining (without cofactor)” value stood at 94.537%.
On the same counts, the results for `O=C(O)Cn1ncc2cc(-c3cc(Cl)cc(NC(=O)OCc4ccccc4)c3)ccc21` are above 2.89 h, below 10 µL/min/mg, 101.103% and 100.106%.
On the same counts, the results for `CCOc1cccc(-c2ccc(S(=O)(=O)Nc3ccc(Cl)cc3C(=O)O)cc2)c1` are 0.233 h, 119 µL/min/mg, 15.029% and 93.83%.
Take `NCCc1ccc(NC(=O)c2cc(Cl)cc(NC(=O)OCc3ccccc3)c2)cc1`: the half-life was found to be 1.59 h, the intrinsic clearance (microsomal CLint) turned out to be 17.5 µL/min/mg, the Remaining worked out at 76.258% and the “Remaining (without cofactor)” value was 74.637%.
Take `NCc1cc(C(=O)O)cc([C@@H]2C[C@H]2c2cc(Cl)cc(NC(=O)OCc3ccccc3)c2)c1`: the half-life was above 2.89 h, the intrinsic metabolic clearance (microsomal CLint) is below 10 µL/min/mg, the Remaining was 89.704% and the “Remaining (without cofactor)” value is recorded as 102.436%.
`O=C(Nc1cc(Cl)cc(C(=O)Nc2n[nH]c3c2CNC3)c1)OCc1ccccc1`: the half-life was above 2.89 h, the microsomal CLint is below 10 µL/min/mg, the Remaining is recorded as 100.832% and the “Remaining (without cofactor)” value is 95.38%.
On the same counts, the results for `c1ccc2sc(C3CCN(Cc4c[nH]c5ccccc45)CC3)nc2c1` are 0.73 h, 38.1 µL/min/mg, 53.75% and 101.907%.
On the same counts, the results for `CC(C)CNC(=O)c1cc(Cl)c(F)cc1NS(=O)(=O)c1ccc(Oc2ccccc2Cl)cc1` are 0.14 h, 198 µL/min/mg, 4% and 98%.
The matching figures for `Cc1cc(OCc2ccccc2)ccc1NS(=O)(=O)c1ccc(Cl)cc1C(=O)O`: 1.25 h, 22.3 µL/min/mg, 70.445% and 101.396%.
Turning to `O=C(Nc1cc(Cl)cc(C(=O)Nc2cccc(-c3nnn[nH]3)c2)c1)OCc1ccccc1`, the half-life was above 2.89 h, the intrinsic metabolic clearance (microsomal CLint) is below 10 µL/min/mg, the Remaining was 88.987% and the “Remaining (without cofactor)” value amounted to 100.499%.
Turning to `CNC(=O)[C@H](Nc1cc(Cl)cc(NC(=O)OCc2ccccc2)c1)c1cccc(-c2nn[nH]n2)c1`, the half-life was 1.31 h, the microsomal CLint is 21.3 µL/min/mg, the Remaining was 70.065% and the “Remaining (without cofactor)” value came to 102.307%.
On the same counts, the results for `NCc1cccc(NC(=O)c2cc(Cl)cc(NC(=O)OCc3ccccc3)c2)c1` are above 2.89 h, below 10 µL/min/mg, 93.647% and 102.839%.
On the same counts, the results for `CCc1cc(C(=O)Nc2cccc(CN)c2)sc1-c1ccc(Cl)cc1` are above 2.89 h, below 10 µL/min/mg, 114.72% and 98.952%.
On the same counts, the results for `O=C(NCC(F)(F)F)c1cc(Cl)c(F)cc1NS(=O)(=O)c1ccc(Oc2ccccc2Cl)cc1` are 0.4 h, 70 µL/min/mg, 33% and 104%.
Regarding `CC[C@@H](Cc1nnn[nH]1)c1ccc(NC(=O)c2cc(Cl)cc(NC(=O)OCc3ccccc3)c2)cc1`, the half-life stood at 1.12 h, the intrinsic metabolic clearance (microsomal CLint) is 24.9 µL/min/mg, the Remaining amounted to 66.587% and the “Remaining (without cofactor)” value is given as 100.68%.
On the same counts, the results for `c1ccc2c(CN3CCC(c4c[nH]c5cccnc45)CC3)c[nH]c2c1` are 1.69 h, 16 µL/min/mg, 78.186% and 103.226%.
As to `NCc1cccc(NC(=O)CN(C(=O)OCc2ccccc2)c2ccc(OCc3ccccc3)cc2)c1`, the half-life was determined as 2.6 h, the intrinsic clearance (microsomal CLint) was determined as 11 µL/min/mg, the Remaining worked out at 83% and the “Remaining (without cofactor)” value came out at 101%.
As to `O=C(O)c1cc(Cl)c(F)cc1S(=O)(=O)Nc1ccc(Oc2ccccc2Cl)cc1`, the half-life is 0.413 h, the microsomal CLint was 67.4 µL/min/mg, the Remaining was determined as 33.369% and the “Remaining (without cofactor)” value stood at 97.65%.
For `NCc1cccc(NC(=O)c2cc(OCc3ccccc3)ccc2CNC(=O)OCc2ccccc2)c1`, the half-life amounted to 1.31 h, the intrinsic metabolic clearance (microsomal CLint) worked out at 21 µL/min/mg, the Remaining worked out at 69% and the “Remaining (without cofactor)” value was determined as 103%.
As for `Cc1cc(-c2ccc([C@@H](NC(=O)OCc3ccccc3)C(=O)Nc3cccc(CN)c3)cc2)cs1`, the half-life turned out to be 0.943 h, the intrinsic metabolic clearance (microsomal CLint) is 29.5 µL/min/mg, the Remaining turned out to be 62.909% and the “Remaining (without cofactor)” value is 101.077%.
On the same counts, the results for `C=CC[C@H](Nc1cccc(-c2nn[nH]n2)c1)c1cc(Cl)cc(NC(=O)OCc2ccccc2)c1` are 0.425 h, 65.5 µL/min/mg, 34.146% and 93.066%.
On the same counts, the results for `N#C[C@H](Nc1cccc(C(=O)O)c1)c1cc(Cl)cc2[nH]ncc12` are 2.33 h, 12 µL/min/mg, 81.554% and 89.628%.
On to `Cc1ccc(NC(=O)c2cc(Cl)cc(NC(=O)OCc3ccccc3)c2)cc1CN`, for which the half-life was above 2.89 h, the intrinsic metabolic clearance (microsomal CLint) is below 10 µL/min/mg, the Remaining is 88.403% and the “Remaining (without cofactor)” value came out at 97.11%.
The matching figures for `CC(C)c1nc2c(C(=O)Nc3cccc(CN)c3)cccc2[nH]1`: above 2.89 h, below 10 µL/min/mg, 101.28% and 99.543%.
The matching figures for `O=C(O)c1cc(Cl)ccc1S(=O)(=O)NC1CCN(c2nc(C3CC3)cc(C(F)(F)F)n2)CC1`: 1.06 h, 26.3 µL/min/mg, 62.456% and 103.505%.
On the same counts, the results for `O=C(Nc1cc(Cl)cc(C(=O)Nc2cccc(-n3nn[nH]c3=O)c2)c1)OCc1ccccc1` are 2.48 h, 11.2 µL/min/mg, 81.771% and 105.363%.
